According to US20190216824A1, “Particles, Compositions and Methods for Ophthalmic and/or Other Applications” (priority 2016, published 2019):

Legend:
[1] = DLS size and PDI of cortisone and hydrocortisone milled with F127 (Example 7); type: physicochemical; conditions: suspension milled with 5% F127 in PBS pH 7.1, 25 hours
Description: A milling procedure was employed in which aqueous dispersions containing coarse compound particles were individually milled with F127 at near-neutral pH buffer using a grinding medium. Briefly, a slurry containing 5% of compound and 5% F127 in PBS (0.0067 M PO43), pH 7.1 was added to an equal bulk volume of 1-mm ceria-stabilized zirconium oxide beads in a glass vial (e.g., 2 mL of slurry per 2 mL of beads). A magnetic stir bar was used to agitate the beads, stirring at approximately 500 rpm at ambient conditions for 25 hours.
The milled suspensions were subjected to dynamic light scattering (DLS) measurements to determine particle size and polydispersity index (PDI, a measure of the width of the particle size distribution). The samples for DLS measurements were buffered with HyClone™ PBS (phosphate-buffered saline) to produce isotonic samples that have a physiologically relevant pH.

[2] = XRPD crystal form before and after milling (Example 8); type: physicochemical; conditions: input vs milled with F127
Excerpt: Particles were isolated by centrifugation, then resuspended in H2O and then recentrifuged. The wet sample was resuspended in H2O and deposited thinly and evenly onto a flat zero background sample holder (Rigaku 906165). The sample was allowed to air dry.
Milligram amounts were packed as an evenly thin layer of solid onto a zero background sample holder (Rigaku 906165).
X-ray Powder Diffraction (XRPD) patterns were obtained using a Rigaku MiniFlex 600 benchtop x-ray diffractometer equipped with a Cu X-ray tube (Cu/Kα=1.54059 Å), a six-position sample changer and a D/teX Ultra detector. […] Diffraction patterns were viewed and analyzed using PDXL analysis software provided by the instrument manufacturer. A reference standard silicon powder (NIST Standard Reference Material 640d) generated a peak at 28.43° and 28.45° two theta when samples were prepared as suspension in H2O (to simulate Procedure A) and Procedure B, respectively.
All input crystalline forms were arbitrarily designated as “A” forms. New forms that emerged after milling, if any, were sequentially designated as “B”, “C”, etc.

SMILES: C[C@]12CCC(=O)C=C1CC[C@@H]1[C@@H]2[C@@H](O)C[C@@]2(C)[C@H]1CC[C@]2(O)C(=O)CO [Compound 2, hydrocortisone]
- PDI [1]: 0.258
- Size (Z-average) [1]: 357 nm
- Crystal form change after milling of "A" forms? [2]: No

SMILES: C[C@]12CCC(=O)C=C1CC[C@@H]1[C@@H]2C(=O)C[C@@]2(C)[C@H]1CC[C@]2(O)C(=O)CO [Compound 1, Cortisone]
- PDI [1]: 0.074
- Size (Z-average) [1]: 225 nm
- Crystal form change after milling of "A" forms? [2]: No
